{"source": "paper PMC3940203", "about": "“Elements in nucleotide sensing and hydrolysis of the AAA+ disaggregation machine ClpB: a structure-based mechanistic dissection of a molecular motor” (Acta Crystallographica Section D: Biological Crystallography, 2014)", "key": {"[1]": {"target": "T1, ClpB NBD2 (Thermus thermophilus, UniProt Q9RA63, N709A)", "T1 sequence (Q9RA63 520-854 N709A)": "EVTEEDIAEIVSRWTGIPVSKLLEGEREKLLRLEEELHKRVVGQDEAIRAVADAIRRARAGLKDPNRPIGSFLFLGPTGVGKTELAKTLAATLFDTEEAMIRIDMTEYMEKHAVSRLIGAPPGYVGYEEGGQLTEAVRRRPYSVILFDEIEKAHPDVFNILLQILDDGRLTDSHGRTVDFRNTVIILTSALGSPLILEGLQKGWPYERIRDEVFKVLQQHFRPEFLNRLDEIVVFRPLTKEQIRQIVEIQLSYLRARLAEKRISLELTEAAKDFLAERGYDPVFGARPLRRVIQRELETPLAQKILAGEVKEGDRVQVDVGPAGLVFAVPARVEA", "test": "stopped-flow FRET, displacement and competition with MANT-dADP, global fit; Kd = koff/kon", "type": "binding", "conditions": "50 mM Tris-HCl pH 7.5, 200 mM KCl, 5 mM MgCl2, 2 mM EDTA, 25 °C", "from_the_text": "(§1) stopped-flow FRET, displacement and competition with MANT-dADP, global fit; Kd = koff/kon on ClpB NBD2"}, "[2]": {"target": "T2, ClpB NBD2 (Thermus thermophilus, UniProt Q9RA63, R806A)", "T2 sequence (Q9RA63 520-854 R806A)": "as the sequence (Q9RA63 520-854 N709A) above, with A190N, R287A counted along it", "test": "stopped-flow FRET, displacement and competition with MANT-dADP, global fit; Kd = koff/kon", "conditions": "50 mM Tris-HCl pH 7.5, 200 mM KCl, 5 mM MgCl2, 2 mM EDTA, 25 °C; read-out: Nucleotide binding / K d", "from_the_text": "as §1"}, "[3]": {"target": "T3, ClpB NBD2 (Thermus thermophilus, UniProt Q9RA63, R621Q)", "T3 sequence (Q9RA63 520-854 R621Q)": "as the sequence (Q9RA63 520-854 N709A) above, with R102Q, A190N counted along it", "test": "stopped-flow FRET, displacement and competition with MANT-dADP, global fit; Kd = koff/kon", "conditions": "50 mM Tris-HCl pH 7.5, 200 mM KCl, 5 mM MgCl2, 2 mM EDTA, 25 °C; read-out: Nucleotide binding / K d", "from_the_text": "as §1"}, "[4]": {"target": "T4, ClpB NBD2 (Thermus thermophilus, UniProt Q9RA63)", "T4 sequence (Q9RA63 520-854)": "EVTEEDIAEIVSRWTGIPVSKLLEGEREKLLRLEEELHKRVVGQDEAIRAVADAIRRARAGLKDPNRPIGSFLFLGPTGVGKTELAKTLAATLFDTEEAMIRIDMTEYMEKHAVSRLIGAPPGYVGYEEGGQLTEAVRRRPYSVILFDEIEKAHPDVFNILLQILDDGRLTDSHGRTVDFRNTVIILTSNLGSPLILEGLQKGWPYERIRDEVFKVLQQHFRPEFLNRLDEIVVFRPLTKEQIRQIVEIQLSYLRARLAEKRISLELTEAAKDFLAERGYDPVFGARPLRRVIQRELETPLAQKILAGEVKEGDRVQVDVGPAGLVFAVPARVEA", "test": "X-ray crystal structure, […] Å", "type": "binding", "conditions": "co-crystal with 2 mM ADP, pH 7.0; nucleotide site of NBD2, no Mg2+ bound"}, "[5]": {"target": "T2, ClpB NBD2", "test": "stopped-flow FRET, direct mixing and displacement, global fit; Kd = koff/kon", "type": "binding", "conditions": "50 mM Tris-HCl pH 7.5, 200 mM KCl, 5 mM MgCl2, 2 mM EDTA, 25 °C; labelled compound", "from_the_text": "(§2) stopped-flow FRET, direct mixing and displacement, global fit; Kd = koff/kon on ClpB NBD2"}, "[6]": {"target": "T1, ClpB NBD2", "test": "stopped-flow FRET, direct mixing and displacement, global fit; Kd = koff/kon", "type": "binding", "conditions": "50 mM Tris-HCl pH 7.5, 200 mM KCl, 5 mM MgCl2, 2 mM EDTA, 25 °C; labelled compound", "from_the_text": "as §2"}, "[7]": {"target": "T3, ClpB NBD2", "test": "stopped-flow FRET, direct mixing and displacement, global fit; Kd = koff/kon", "type": "binding", "conditions": "50 mM Tris-HCl pH 7.5, 200 mM KCl, 5 mM MgCl2, 2 mM EDTA, 25 °C; labelled compound", "from_the_text": "as §2"}, "[8]": {"target": "T4, ClpB NBD2", "test": "X-ray crystal structure, […] Å", "type": "binding", "conditions": "co-crystal with 2 mM AMPPCP, pH 7.0; nucleotide site of NBD2, no Mg2+ bound"}, "[9]": {"target": "T2, ClpB NBD2", "test": "stopped-flow FRET, competition and displacement with MANT-dADP, global fit; Kd = koff/kon", "conditions": "50 mM Tris-HCl pH 7.5, 200 mM KCl, 5 mM MgCl2, 2 mM EDTA, 25 °C; ATP-regenerating system (pyruvate kinase, phosphoenolpyruvate); read-out: Nucleotide binding / K d", "from_the_text": "(§3) stopped-flow FRET, competition and displacement with MANT-dADP, global fit; Kd = koff/kon on ClpB NBD2"}, "[10]": {"target": "T1, ClpB NBD2", "test": "stopped-flow FRET, competition and displacement with MANT-dADP, global fit; Kd = koff/kon", "conditions": "50 mM Tris-HCl pH 7.5, 200 mM KCl, 5 mM MgCl2, 2 mM EDTA, 25 °C; ATP-regenerating system (pyruvate kinase, phosphoenolpyruvate); read-out: Nucleotide binding / K d", "from_the_text": "as §3"}, "[11]": {"target": "T3, ClpB NBD2", "test": "stopped-flow FRET, competition and displacement with MANT-dADP, global fit; Kd = koff/kon", "conditions": "50 mM Tris-HCl pH 7.5, 200 mM KCl, 5 mM MgCl2, 2 mM EDTA, 25 °C; ATP-regenerating system (pyruvate kinase, phosphoenolpyruvate); read-out: Nucleotide binding / K d", "from_the_text": "as §3"}}, "data": [{"compound": "Nc1ncnc2c1ncn2[C@@H]1O[C@H](COP(=O)(O)OP(=O)(O)O)[C@@H](O)[C@H]1O", "note": "[ADP]", "values": [{"measurement": "Nucleotide binding / K d (μM)", "setting": "[1]", "result": "0.43 ± 8 × 10^−3 µM"}, {"measurement": "Kd", "setting": "[2]", "result": "3.8 ± 0.06", "unit": "µM"}, {"measurement": "Kd", "setting": "[3]", "result": "1.5 ± 0.02", "unit": "µM"}, {"measurement": "X-ray crystal structure, 2.4 Å", "setting": "[4]", "result": "Wild-type ClpB NBD2 in complex with ADP, PDB entry 4lj5"}]}, {"compound": "CNc1ccccc1C(=O)O[C@H]1C[C@H](n2cnc3c(N)ncnc32)O[C@@H]1COP(=O)(O)OP(=O)(O)O", "note": "[MANT-dADP]", "values": [{"measurement": "Nucleotide binding / K d (μM)", "setting": "[5]", "result": "0.027 ± 1 × 10^−4 µM"}, {"measurement": "Nucleotide binding / K d (μM)", "setting": "[6]", "result": "0.0024 ± 3 × 10^−5 µM"}, {"measurement": "Nucleotide binding / K d (μM)", "setting": "[7]", "result": "0.0068 ± 8 × 10^−5 µM"}]}, {"compound": "Nc1ncnc2c1ncn2[C@@H]1O[C@H](COP(=O)(O)OP(=O)(O)CP(=O)(O)O)[C@@H](O)[C@H]1O", "note": "[AMPPCP]", "values": [{"measurement": "X-ray crystal structure, 1.9 Å", "setting": "[8]", "result": "Wild-type ClpB NBD2 in complex with AMPPCP, PDB entry 4lj6"}]}, {"compound": "CNc1ccccc1C(=O)O[C@H]1C[C@H](n2cnc3c(N)ncnc32)O[C@@H]1COP(=O)(O)OP(=O)(O)OP(=O)(O)O", "note": "[MANT-dATP]", "values": [{"measurement": "Nucleotide binding / K d (μM)", "setting": "[5]", "result": "0.29 ± 2 × 10^−3 µM"}]}, {"compound": "Nc1ncnc2c1ncn2[C@@H]1O[C@H](COP(=O)(O)OP(=O)(O)OP(=O)(O)O)[C@@H](O)[C@H]1O", "note": "[ATP]", "values": [{"measurement": "Kd", "setting": "[9]", "result": "84 ± 4", "unit": "µM"}, {"measurement": "Kd", "setting": "[10]", "result": "74 ± 3", "unit": "µM"}, {"measurement": "Kd", "setting": "[11]", "result": "55 ± 2", "unit": "µM"}]}]}
